According to patent US6706740B2, “Fungicidal heterocyclic aromatic amides and their compositions, methods of use and preparation” (Dow AgroSciences LLC, priority 1999, dated 2004):

Experiments:
[1] = test system: Stagonospora nodorum (Leptosphaeria nodorum—LEPTNO); assay: In vitro fungal growth inhibition, Stagonospora nodorum (LEPTNO); assay type: cell-based; conditions: Leptosphaeria; 25 ppm in growth medium; read-out: LEPTNO in vitro Growth Inhibition
[2] = test system: Mycosphaerella graminicola (Septoria tritici—SEPTTR); assay: In vitro fungal growth inhibition, Mycosphaerella graminicola (SEPTTR); assay type: cell-based; conditions: Zymoseptoria tritici; 25 ppm in growth medium; read-out: SEPTTR in vitro Growth Inhibition
[3] = test system: Puccinia recondita—PUCCRT; assay: Brown Rust of Wheat, in vivo whole plant, 24 Hour Protectant; conditions: Puccinia; 100 ppm spray, wheat, 24 hour protectant; control of fungal infection vs untreated plants; read-out: PUCCRT in vivo 1 Day Protectant
[4] = test system: Magnaporthe grisea (Pyricularia oryzae—PYRIOR); assay: microbe, parasite or virus in culture; assay type: cell-based; conditions: Pyricularia oryzae, read-out: PYRIOR in vitro Growth Inhibition
[5] = test system: Ustilago maydis (USTIMA); assay: microbe, parasite or virus in culture; assay type: cell-based; conditions: Mycosarcoma maydis, read-out: USTIMA in vitro Growth Inhibition
[6] = test system: Rhizoctonia solani (RHIZSO); assay: microbe, parasite or virus in culture; assay type: cell-based; conditions: Rhizoctonia solani, read-out: RHIZSO in vitro Growth Inhibition
[7] = test system: Leptosphaeria nodorum—LEPTNO; assay: Glume Blotch of Wheat, in vivo whole plant, 24 Hour Protectant; conditions: 100 ppm spray, wheat, 24 hour protectant, control of fungal infection vs untreated plants; for pest or weed control at 100 ppm: Leptosphaeria, read-out: LEPTNO in vivo 1 Day Protectant
[8] = test system: Erysiphe graminis—ERYSGT; assay: Powdery Mildew of Wheat, in vivo whole plant, 24 Hour Protectant; conditions: Erysiphe; 100 ppm spray, wheat, 24 hour protectant; control of fungal infection vs untreated plants; read-out: ERYSGT in vivo 1 Day Protectant
[9] = test system: Phytophthora infestans (PHYTIN); assay: microbe, parasite or virus in culture; assay type: cell-based; conditions: Phytophthora infestans, read-out: PHYTIN in vitro Growth Inhibition
[10] = test system: Septoria tritici—SEPTTR; assay: Leaf Blotch of Wheat, in vivo whole plant, 24 Hour Protectant; conditions: Zymoseptoria tritici, 24 h, 100 ppm spray, wheat, 24 hour protectant; control of fungal infection vs untreated plants; read-out: SEPTTR in vivo 1 Day Protectant
[11] = test system: Phytophthora infestans—PHYTIN; assay: whole plant or invertebrate; assay type: in vivo; conditions: Phytophthora, in Solanum lycopersicum, 24 h, read-out: PHYTIN in vivo 1 Day Protectant

`CCCCCCCCCCCCC(=O)O[C@H]1[C@H](C)OC(=O)[C@@H](NC(=O)c2nccc(OC)c2O)COC(=O)[C@@H]1Cc1ccccc1` [Compound 397] was tested, and the inhibition at 25 ppm [1] was less than 80%, the inhibition at 25 ppm [2] was less than 80% and the pest or weed control at 100 ppm [3] was 25 to 74%. For the same molecule, the inhibition at 25 ppm [4] was less than 80%, the inhibition at 25 ppm [5] was less than 80% and the inhibition at 25 ppm [6] was less than 80%. It also gave a pest or weed control at 100 ppm [7] of 25 to 74%, a pest or weed control at 100 ppm [8] of less than 25% and an inhibition at 25 ppm [9] of less than 80%. For the same molecule, the pest or weed control at 100 ppm [10] was 25 to 74% and the pest or weed control at 100 ppm [11] was less than 25%.

`CCCCCCCCCCCCCCCCCC(=O)O[C@H]1[C@H](C)OC(=O)[C@@H](NC(=O)c2nccc(OC)c2O)COC(=O)[C@@H]1Cc1ccccc1` [Compound 398] was tested, and the inhibition at 25 ppm [1] was greater than 80%, the inhibition at 25 ppm [2] was greater than 80% and the pest or weed control at 100 ppm [3] was 25 to 74%. For the same molecule, the inhibition at 25 ppm [4] was greater than 80%, the inhibition at 25 ppm [5] was less than 80% and the inhibition at 25 ppm [6] was less than 80%. For the same molecule, the pest or weed control at 100 ppm [7] was less than 25%, the pest or weed control at 100 ppm [8] was less than 25% and the inhibition at 25 ppm [9] was less than 80%. The pest or weed control at 100 ppm [10] was less than 25% and the pest or weed control at 100 ppm [11] was less than 25%.

`COc1ccnc(C(=O)N[C@H]2COC(=O)[C@H](Cc3ccccc3)[C@@H](OC(=O)NC(C)C)[C@H](C)OC2=O)c1O` [Compound 399] showed an inhibition at 25 ppm [1] of less than 80%, an inhibition at 25 ppm [2] of less than 80% and a pest or weed control at 100 ppm [3] of 25 to 74%. It also gave an inhibition at 25 ppm [4] of less than 80%, an inhibition at 25 ppm [5] of less than 80% and an inhibition at 25 ppm [6] of less than 80%. For the same molecule, the “LEPTNO in vivo 1 Day Protectant” value [7] was “+ +”, the pest or weed control at 100 ppm [8] was less than 25% and the inhibition at 25 ppm [9] was less than 80%. The pest or weed control at 100 ppm [10] was 25 to 74% and the pest or weed control at 100 ppm [11] was less than 25%.

In the case of `COc1ccnc(C(=O)N[C@H]2COC(=O)[C@H](Cc3ccccc3)[C@@H](OC(=O)NC(C)(C)C)[C@H](C)OC2=O)c1O` [Compound 400], the inhibition at 25 ppm [1] is reported as less than 80%, the inhibition at 25 ppm [2] is reported as less than 80% and the pest or weed control at 100 ppm [3] is reported as 25 to 74%. It also gave an inhibition at 25 ppm [4] greater than 80%, an inhibition at 25 ppm [5] of less than 80% and an inhibition at 25 ppm [6] of less than 80%. For the same molecule, the “LEPTNO in vivo 1 Day Protectant” value [7] was “+ +”, the pest or weed control at 100 ppm [8] was 25 to 74% and the inhibition at 25 ppm [9] was less than 80%. It also gave a pest or weed control at 100 ppm [10] of 25 to 74% and a pest or weed control at 100 ppm [11] of less than 25%.

`COc1ccnc(C(=O)N[C@H]2COC(=O)[C@H](Cc3ccccc3)[C@@H](OC(=O)OC(C)C)[C@H](C)OC2=O)c1O` [Compound 401] showed an inhibition at 25 ppm [1] greater than 80%, an inhibition at 25 ppm [2] greater than 80% and a pest or weed control at 100 ppm [3] of 25 to 74%. The inhibition at 25 ppm [4] was greater than 80%, the inhibition at 25 ppm [5] was greater than 80% and the inhibition at 25 ppm [6] was less than 80%. For the same molecule, the “LEPTNO in vivo 1 Day Protectant” value [7] was “+ +”, the pest or weed control at 100 ppm [8] was less than 25% and the inhibition at 25 ppm [9] was less than 80%. For the same molecule, the pest or weed control at 100 ppm [10] was 25 to 74% and the pest or weed control at 100 ppm [11] was less than 25%.

`COc1ccnc(C(=O)Nc2ccc(C(=O)c3cccc(C(F)(F)F)c3)cc2)c1O` [Compound 405] was tested, and the inhibition at 25 ppm [1] was greater than 80%, the inhibition at 25 ppm [2] was less than 80% and the pest or weed control at 100 ppm [3] was less than 25%. The inhibition at 25 ppm [4] was less than 80%, the inhibition at 25 ppm [5] was less than 80% and the inhibition at 25 ppm [6] was less than 80%. The pest or weed control at 100 ppm [7] was 25 to 74%, the pest or weed control at 100 ppm [8] was less than 25% and the inhibition at 25 ppm [9] was less than 80%. It also gave a pest or weed control at 100 ppm [10] of less than 25% and a pest or weed control at 100 ppm [11] of less than 25%.

In the case of `COc1ccnc(C(=O)Nc2ccc(C(=O)c3ccc(C(F)(F)F)cc3)cc2)c1O` [Compound 406], the inhibition at 25 ppm [1] is reported as less than 80%, the inhibition at 25 ppm [2] is reported as less than 80% and the pest or weed control at 100 ppm [3] is reported as less than 25%. For the same molecule, the inhibition at 25 ppm [4] was less than 80%, the inhibition at 25 ppm [5] was less than 80% and the inhibition at 25 ppm [6] was less than 80%. The pest or weed control at 100 ppm [7] was 25 to 74%, the pest or weed control at 100 ppm [8] was 25 to 74% and the inhibition at 25 ppm [9] was less than 80%. For the same molecule, the pest or weed control at 100 ppm [10] was 25 to 74% and the pest or weed control at 100 ppm [11] was less than 25%.

`COc1ccnc(C(=O)Nc2ccc(/C(=N/O)c3cccc(C(F)(F)F)c3)cc2)c1O` [Compound 407] gave an inhibition at 25 ppm [1] of less than 80%, an inhibition at 25 ppm [2] greater than 80% and a pest or weed control at 100 ppm [3] of less than 25%. The inhibition at 25 ppm [4] was less than 80%, the inhibition at 25 ppm [5] was less than 80% and the inhibition at 25 ppm [6] was less than 80%. For the same molecule, the pest or weed control at 100 ppm [7] was 25 to 74%, the pest or weed control at 100 ppm [8] was less than 25% and the inhibition at 25 ppm [9] was less than 80%. The pest or weed control at 100 ppm [10] was 25 to 74% and the pest or weed control at 100 ppm [11] was less than 25%.

For `CO/N=C(/c1ccc(NC(=O)c2nccc(OC)c2O)cc1)c1cccc(C(F)(F)F)c1` [Compound 408], the inhibition at 25 ppm [1] was greater than 80%, the inhibition at 25 ppm [2] was less than 80% and the pest or weed control at 100 ppm [3] was less than 25%. For the same molecule, the inhibition at 25 ppm [4] was less than 80%, the inhibition at 25 ppm [5] was less than 80% and the inhibition at 25 ppm [6] was less than 80%. For the same molecule, the pest or weed control at 100 ppm [7] was 25 to 74%, the pest or weed control at 100 ppm [8] was 25 to 74% and the inhibition at 25 ppm [9] was less than 80%. The pest or weed control at 100 ppm [10] was 25 to 74% and the pest or weed control at 100 ppm [11] was less than 25%.

Molecule `CO/N=C(/c1ccc(NC(=O)c2nccc(OC)c2O)cc1)c1ccc(C(F)(F)F)cc1` [Compound 409] has an inhibition at 25 ppm [1] greater than 80%, an inhibition at 25 ppm [2] greater than 80% and a pest or weed control at 100 ppm [3] of 25 to 74%. For the same molecule, the inhibition at 25 ppm [4] was greater than 80%, the inhibition at 25 ppm [5] was less than 80% and the inhibition at 25 ppm [6] was less than 80%. The “LEPTNO in vivo 1 Day Protectant” value [7] was “+ +”, the pest or weed control at 100 ppm [8] was 25 to 74% and the inhibition at 25 ppm [9] was greater than 80%. It also gave a pest or weed control at 100 ppm [10] of 25 to 74% and a pest or weed control at 100 ppm [11] of 25 to 74%.

Work on `COc1ccnc(C(=O)Nc2ccccc2Oc2ccc(C)cc2)c1O` [Compound 411] yielded an inhibition at 25 ppm [1] greater than 80%, an inhibition at 25 ppm [2] greater than 80% and a pest or weed control at 100 ppm [3] of less than 25%. It also gave an inhibition at 25 ppm [4] of less than 80%, an inhibition at 25 ppm [5] of less than 80% and an inhibition at 25 ppm [6] of less than 80%. It also gave a pest or weed control at 100 ppm [7] of less than 25%, a pest or weed control at 100 ppm [8] of less than 25% and an inhibition at 25 ppm [9] of less than 80%. The pest or weed control at 100 ppm [10] was less than 25% and the pest or weed control at 100 ppm [11] was less than 25%.

For `COc1ccnc(C(=O)Nc2cccc(Oc3ccccc3C)c2)c1O` [Compound 412], the inhibition at 25 ppm [1] was greater than 80%, the inhibition at 25 ppm [2] was greater than 80% and the pest or weed control at 100 ppm [3] was 25 to 74%. For the same molecule, the inhibition at 25 ppm [4] was greater than 80%, the inhibition at 25 ppm [5] was less than 80% and the inhibition at 25 ppm [6] was less than 80%. For the same molecule, the pest or weed control at 100 ppm [7] was less than 25%, the pest or weed control at 100 ppm [8] was less than 25% and the inhibition at 25 ppm [9] was less than 80%. For the same molecule, the pest or weed control at 100 ppm [10] was less than 25% and the pest or weed control at 100 ppm [11] was less than 25%.

Work on `COc1ccnc(C(=O)Nc2cccc(Oc3cccc(C)c3)c2)c1O` [Compound 413] yielded an inhibition at 25 ppm [1] greater than 80%, an inhibition at 25 ppm [2] greater than 80% and a pest or weed control at 100 ppm [3] of 25 to 74%. The inhibition at 25 ppm [4] was greater than 80%, the inhibition at 25 ppm [5] was less than 80% and the inhibition at 25 ppm [6] was less than 80%. For the same molecule, the pest or weed control at 100 ppm [7] was less than 25%, the pest or weed control at 100 ppm [8] was less than 25% and the inhibition at 25 ppm [9] was less than 80%. For the same molecule, the pest or weed control at 100 ppm [10] was less than 25% and the pest or weed control at 100 ppm [11] was 25 to 74%.

`COc1ccnc(C(=O)Nc2cccc(Oc3ccc(C)cc3)c2)c1O` [Compound 414] showed an inhibition at 25 ppm [1] greater than 80%, an inhibition at 25 ppm [2] greater than 80% and a pest or weed control at 100 ppm [3] of 25 to 74%. For the same molecule, the inhibition at 25 ppm [4] was greater than 80%, the inhibition at 25 ppm [5] was less than 80% and the inhibition at 25 ppm [6] was less than 80%. The pest or weed control at 100 ppm [7] was less than 25%, the pest or weed control at 100 ppm [8] was less than 25% and the inhibition at 25 ppm [9] was less than 80%. It also gave a pest or weed control at 100 ppm [10] of less than 25% and a pest or weed control at 100 ppm [11] of 25 to 74%.

Molecule `COc1ccnc(C(=O)Nc2ccc(Oc3ccccc3C)cc2)c1O` [Compound 415] has an inhibition at 25 ppm [1] of less than 80%, an inhibition at 25 ppm [2] greater than 80% and a pest or weed control at 100 ppm [3] of 25 to 74%. The inhibition at 25 ppm [4] was less than 80%, the inhibition at 25 ppm [5] was less than 80% and the inhibition at 25 ppm [6] was less than 80%. The pest or weed control at 100 ppm [7] was less than 25%, the pest or weed control at 100 ppm [8] was 25 to 74% and the inhibition at 25 ppm [9] was less than 80%. It also gave a pest or weed control at 100 ppm [10] of less than 25% and a pest or weed control at 100 ppm [11] of less than 25%.
